Measured values as given in ChEMBL document CHEMBL2202991, “The effect of the length and flexibility of the side chain of basic amino acids on the binding of antimicrobial peptides to zwitterionic and anionic membrane model systems” (Bioorg Med Chem, 2012).
Active and inactive are the calls of the source. The rule behind the calls is not given here. Non-standard residues stand in square brackets, D forms with d. Residues, ends and D or L forms follow the SMILES beside them. ξ: configuration not given here. Pro(3ξ,4ξ-(CH2)4) = O=C(O)[C@H]1NCC2CCCCC21; Tic = O=C(O)[C@@H]1Cc2ccccc2CN1; ξR = N=C(N)NCCCC(N)C(=O)O; Dab = NCC[C@H](N)C(=O)O; Dap = NC[C@H](N)C(=O)O

How the values were obtained:
[1] = Binding affinity to anionic sodium dodecyl sulfate micelle at 100 uM by circular dichroism analysis
Lipid bilayer [2] = assay: Binding affinity to 4:1 POPC/POPG large unilamellar vesicle assessed as lipid:compound molar ratio for complete interaction at 0.2 mM by isothermal titration calorimetric analysis
[3] = Binding affinity to zwitterionic dodecylphosphocholine micelle at 100 uM by circular dichroism analysis
Lipid bilayer [4] = assay: Binding affinity to POPC large unilamellar vesicle at 0.2 mM by isothermal titration calorimetric analysis
Lipid bilayer [5] = assay: Binding affinity to POPC large unilamellar vesicle at 200 uM by circular dichroism analysis
Lipid bilayer [6] = assay: Binding affinity to POPC large unilamellar vesicle at 200 uM by pseudo titration based circular dichroism analysis
Lipid bilayer [7] = assay: Binding affinity to 4:1 POPC/POPG large unilamellar vesicle assessed as lipid:compound molar ratio required for integration into membrane at 200 uM by pseudo titration-based circular dichroism analysis
Lipid bilayer [8] = assay: Binding affinity to POPC small unilamellar vesicle at 100 uM by circular dichroism analysis
Lipid bilayer [9] = assay: Binding affinity to 4:1 POPC/POPG small unilamellar vesicle at 100 uM by circular dichroism analysis
Lipid bilayer [10] = assay: Binding affinity to POPC large unilamellar vesicles assessed as calcein leakage at 20 uM measured up to 90 mins by fluorimetric analysis
Lipid bilayer [11] = assay: Binding affinity to 4:1 POPC/POPG large unilamellar vesicles assessed as calcein leakage at 20 uM measured up to 90 mins by fluorimetric analysis
Lipid bilayer [12] = assay: Binding affinity to 4:1 POPC/POPG large unilamellar vesicle at 100 uM by circular dichroism analysis
Lipid bilayer [13] = assay: Binding affinity to POPC large unilamellar vesicle assessed as lipid:compound molar ratio for complete interaction at 0.2 mM by isothermal titration calorimetric analysis
Lipid bilayer [14] = assay: Binding affinity to POPC large unilamellar vesicle at 100 uM by circular dichroism analysis
Lipid bilayer [15] = assay: Binding affinity to POPC large unilamellar vesicles assessed as calcein leakage at 4 to 20 uM measured up to 90 mins by fluorimetric analysis
Lipid bilayer [16] = assay: Binding affinity to 4:1 POPC/POPG large unilamellar vesicles assessed as calcein leakage at 4 to 20 uM measured up to 90 mins by fluorimetric analysis
Lipid bilayer [17] = assay: Binding affinity to POPC large unilamellar vesicle at 100 uM by pseudo titration based circular dichroism analysis
Lipid bilayer [18] = assay: Binding affinity to 4:1 POPC/POPG large unilamellar vesicle at 200 uM by pseudo titration-based circular dichroism analysis
Lipid bilayer [19] = assay: Binding affinity to POPC large unilamellar vesicles assessed as calcein leakage at 4 uM measured up to 90 mins by fluorimetric analysis
Lipid bilayer [20] = assay: Binding affinity to 4:1 POPC/POPG large unilamellar vesicle assessed as lipid:compound molar ratio required for integration into membrane at 100 uM by pseudo titration-based circular dichroism analysis
Lipid bilayer [21] = assay: Binding affinity to 4:1 POPC/POPG large unilamellar vesicles assessed as calcein leakage at 4 uM measured up to 90 mins by fluorimetric analysis

Row | SMILES | Activity [1] | Activity (Lipid bilayer [2]) [molar ratio] | Activity [3] | Kb (Lipid bilayer [4]) [M⁻¹] | Activity (Lipid bilayer [5]) | Activity (Lipid bilayer [6]) | Activity (Lipid bilayer [7]) [molar ratio] | Activity (Lipid bilayer [8]) | Activity (Lipid bilayer [9]) | Activity (Lipid bilayer [10]) [%] | Activity (Lipid bilayer [11]) [%] | Activity (Lipid bilayer [12]) | Activity (Lipid bilayer [13]) [molar ratio] | Activity (Lipid bilayer [14]) | Activity (Lipid bilayer [15]) | Activity (Lipid bilayer [16]) | Activity (Lipid bilayer [17]) | other results
1 | CC(=O)NCC(=O)N[C@@H](Cc1ccccc1)C(=O)N1Cc2ccccc2C[C@H]1C(=O)N1CC2CCCCC2[C@H]1C(=O)NCC(=O)N[C@@H](CCCCN)C(=O)N1Cc2ccccc2C[C@H]1C(=O)N1CC2CCCCC2[C@H]1C(=O)NCC(=O)N[C@@H](Cc1ccccc1)C(=O)N1Cc2ccccc2C[C@H]1C(=O)N1CC2CCCCC2[C@H]1C(=O)NCC(=O)N[C@@H](CCCCN)C(=O)N1Cc2ccccc2C[C@H]1C(=O)N[C@@H](CCCCN)C(=O)N[C@@H](CCCCN)C(=O)N[C@@H](CCCCN)C(=O)N[C@@H](CCCCN)C(N)=O (some centres not stated) (Ac-GF[Tic][Pro(3ξ,4ξ-(CH2)4)]GK[Tic][Pro(3ξ,4ξ-(CH2)4)]GF[Tic][Pro(3ξ,4ξ-(CH2)4)]GK[Tic]KKKK-NH2) | Active | 30 | Active | 211 | Active | Active | 39 | Active | Active | 25 | 40 | Active | 120 | – | – | – | – | –
2 | CC(=O)NCC(=O)N[C@@H](Cc1ccccc1)C(=O)N1Cc2ccccc2C[C@H]1C(=O)N1CC2CCCCC2[C@H]1C(=O)NCC(=O)N[C@@H](CCN)C(=O)N1Cc2ccccc2C[C@H]1C(=O)N1CC2CCCCC2[C@H]1C(=O)NCC(=O)N[C@@H](Cc1ccccc1)C(=O)N1Cc2ccccc2C[C@H]1C(=O)N1CC2CCCCC2[C@H]1C(=O)NCC(=O)N[C@@H](CCN)C(=O)N1Cc2ccccc2C[C@H]1C(=O)N[C@@H](CCN)C(=O)N[C@@H](CCN)C(=O)N[C@@H](CCN)C(=O)N[C@@H](CCN)C(N)=O (some centres not stated) (Ac-GF[Tic][Pro(3ξ,4ξ-(CH2)4)]G[Dab][Tic][Pro(3ξ,4ξ-(CH2)4)]GF[Tic][Pro(3ξ,4ξ-(CH2)4)]G[Dab][Tic][Dab][Dab][Dab][Dab]-NH2) | Active | 20 | Active | 240 | – | – | 22 | Active | Active | – | – | Active | 130 | Active | Active | Active | Active | –
3 | CC(=O)NCC(=O)N[C@@H](Cc1ccccc1)C(=O)N1Cc2ccccc2C[C@H]1C(=O)N1CC2CCCCC2[C@H]1C(=O)NCC(=O)N[C@@H](CN)C(=O)N1Cc2ccccc2C[C@H]1C(=O)N1CC2CCCCC2[C@H]1C(=O)NCC(=O)N[C@@H](Cc1ccccc1)C(=O)N1Cc2ccccc2C[C@H]1C(=O)N1CC2CCCCC2[C@H]1C(=O)NCC(=O)N[C@@H](CN)C(=O)N1Cc2ccccc2C[C@H]1C(=O)N[C@@H](CN)C(=O)N[C@@H](CN)C(=O)N[C@@H](CN)C(=O)N[C@@H](CN)C(N)=O (some centres not stated) (Ac-GF[Tic][Pro(3ξ,4ξ-(CH2)4)]G[Dap][Tic][Pro(3ξ,4ξ-(CH2)4)]GF[Tic][Pro(3ξ,4ξ-(CH2)4)]G[Dap][Tic][Dap][Dap][Dap][Dap]-NH2) | Active | 55 | Active | 570 | Active | Active | – | Active | Active | 100 | 100 | Active | 55 | – | – | – | – | Activity (Lipid bilayer [18]): Active
4 | CC(=O)NCC(=O)N[C@@H](Cc1ccccc1)C(=O)N1Cc2ccccc2C[C@H]1C(=O)N1CC2CCCCC2[C@H]1C(=O)NCC(=O)NC(CCCNC(=N)N)C(=O)N1Cc2ccccc2C[C@H]1C(=O)N1CC2CCCCC2[C@H]1C(=O)NCC(=O)N[C@@H](Cc1ccccc1)C(=O)N1Cc2ccccc2C[C@H]1C(=O)N1CC2CCCCC2[C@H]1C(=O)NCC(=O)N[C@@H](CCCNC(=N)N)C(=O)N1Cc2ccccc2C[C@H]1C(=O)N[C@@H](CCCNC(=N)N)C(=O)N[C@@H](CCCNC(=N)N)C(=O)N[C@@H](CCCNC(=N)N)C(=O)N[C@@H](CCCNC(=N)N)C(N)=O (some centres not stated) (Ac-GF[Tic][Pro(3ξ,4ξ-(CH2)4)]G[ξR][Tic][Pro(3ξ,4ξ-(CH2)4)]GF[Tic][Pro(3ξ,4ξ-(CH2)4)]GR[Tic]RRRR-NH2) | Active | 30 | Active | 479 | – | – | – | Active | Active | 60 | 90 | Active | 150 | Active | – | – | Active | Activity (Lipid bilayer [19]): 60%; Activity (Lipid bilayer [20]): 52 molar ratio; Activity (Lipid bilayer [21]): 50%
5 | CC(=O)NCC(=O)N[C@@H](Cc1ccccc1)C(=O)N1Cc2ccccc2C[C@H]1C(=O)N1CC2CCCCC2[C@@H]1C(=O)NCC(=O)N[C@H](CCCN)C(=O)N1Cc2ccccc2C[C@@H]1C(=O)N1CC2CCCCC2[C@H]1C(=O)NCC(=O)NC(Cc1ccccc1)C(=O)N1Cc2ccccc2C[C@@H]1C(=O)N1CC2CCCCC2[C@@H]1C(=O)NCC(=O)N[C@H](CCCN)C(=O)N1Cc2ccccc2C[C@@H]1C(=O)N[C@H](CCCN)C(=O)N[C@H](CCCN)C(=O)N[C@H](CCCN)C(=O)N[C@H](CCCN)C(N)=O (single isomer, unassigned) | Active | 28 | Active | 191 | – | – | 36 | Active | Active | – | – | Active | 130 | Active | Active | Active | Active | –
